According to US20140073651A1, “BENZAMIDE DERIVATIVES AS P2X7 RECEPTOR ANTAGONISTS” (Actelion Pharmaceuticals Ltd., priority 2011, published 2014):

The molecules below were run against T1, human recombinant P2X7 receptor (Homo sapiens, UniProt Q99572) (assay: YO-PRO assay (YO-PRO-1 uptake) in HEK cells stably expressing P2X7). Settings: HEK-293 cells expressing human recombinant P2X7 receptor; ATP 250 μM, 90 minutes; YO-PRO-1 fluorescence (FLIPR tetra); read-out: IC50 (antagonistic activity with respect to the P2X7 receptor).
T1 construct: expressed in transfected cells
T1 sequence (Q99572 1-595): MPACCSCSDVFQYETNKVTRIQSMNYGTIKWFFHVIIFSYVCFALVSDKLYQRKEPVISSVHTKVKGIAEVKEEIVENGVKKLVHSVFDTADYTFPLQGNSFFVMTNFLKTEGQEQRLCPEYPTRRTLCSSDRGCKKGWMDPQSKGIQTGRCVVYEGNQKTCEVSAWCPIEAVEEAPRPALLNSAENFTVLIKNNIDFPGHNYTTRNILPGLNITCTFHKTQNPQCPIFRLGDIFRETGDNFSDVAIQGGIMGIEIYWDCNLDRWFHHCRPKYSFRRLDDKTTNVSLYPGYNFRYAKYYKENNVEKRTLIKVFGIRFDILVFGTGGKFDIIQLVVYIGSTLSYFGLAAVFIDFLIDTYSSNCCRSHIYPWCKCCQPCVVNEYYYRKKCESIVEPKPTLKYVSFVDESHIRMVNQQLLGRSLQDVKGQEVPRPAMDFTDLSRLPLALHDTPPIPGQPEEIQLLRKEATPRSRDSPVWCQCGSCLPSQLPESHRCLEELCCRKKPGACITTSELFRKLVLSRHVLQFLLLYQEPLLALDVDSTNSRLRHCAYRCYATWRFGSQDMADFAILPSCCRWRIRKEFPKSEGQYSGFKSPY
Assay type: cell-based
Procedure: Cell line generation was performed in general according to established molecular cloning protocols. Specifically, RNA was extracted from human whole blood using the Qiagen RNeasy kit (Qiagen, CH) according to the manufacturer's instructions. Subsequently cDNA was made (Superscript II, Invitrogen AG, CH) and the human P2X7 gene (genbank ref. BC011913) was amplified with the following primers: [NT] and [NT] The amplified sequence was subsequently ligated into a pcDNA3.1 (+) NotI, NheI digested plasmid. […] Following a 24 h exposure to DNA, cells were trypsinized and re-seeded at low density in the presence of 250 μg Geneticin. Geneticin resistant cells were then selected during two consecutive rounds of cloning by serial limiting dilution with visual inspection. Individual clones were screened for P2X7 expression by applying ATP and recording the resultant uptake of YO-[…]. Specific cell clones were chosen based on RNA and protein expression. HEK cells stably expressing P2X7 were used to screen drugs using the YO-[…] assay. Cells were grown to confluency in adherent culture at 37° C. in a humidified 5% CO2 incubator (split 1/5 every 3-4 days with DMEM, 10% FCS, 1% Penicillin/Streptomycin, 250 μg/ml Geneticin). Adherent cells were detached by incubation with Trypsine (1 ml per 165 cm^2 dish) for 2 minutes, then washed off with 10 ml PBS (without Mg^2+ and Ca^2+), and resuspended in DMEM, 10% FCS, 1% Penicillin/Streptomycin, no Geneticin. 10'000 cells per well (48 hours before the assay) or 25'000 cells per well (Vi-cell XR (Beckman Coulter) (24 hours before the assay) in 50 μl full medium were seeded on 384-well black-wall, clear bottom plates, that were coated before with 10 μl per well Poly-L-Lysine, incubated for 30-60 minutes at 37° C. and washed once with PBS. Medium was removed from cells and 50 μl of assay buffer containing 0.5 μM YO-[…] was added into the wells. Solutions of antagonist compounds were prepared by serial dilutions of a 10 mM DMSO solution of the antagonist into PBS using a BioMek (Beckman Coulter). Each concentration was performed in duplicate. […] During this time period, four time points were taken. Each time point comprised the average of several measurements made within a few seconds. […] The FLIPR tetra was equipped with Molecular Devices Screen Works system control software to define and run experimental protocols. […] For IC50 measurements the maximum intensity is plotted against the concentration of compound to determine IC50 values.

First: CCCN(c1ccc(Cl)c(C(=O)NCC2(O)CCCCC2)c1)c1ccnc(Cl)n1 [Example 22, 2-Chloro-5-[(2-chloro-pyrimidin-4-yl)-propyl-amino]-N-(1-hydroxy-cyclohexylmethyl)-benzamide]
Second: COCCN(c1ccc(Cl)c(C(=O)NCC2(O)CCCCC2)c1)c1ccnc(Cl)n1 [Example 32, 2-Chloro-5-[(2-chloro-pyrimidin-4-yl)-(2-methoxy-ethyl)-amino]-N-(1-hydroxy-cyclohexylmethyl)-benzamide]
The IC50 of the first is 2-fold lower: 267 nM for the first, 531 nM for the second. The first is the more potent here.

Compared with `CCCN(c1ccc(Cl)c(C(=O)NCC2(O)CCCCC2)c1)c1cc[nH]c(=O)n1` [Example 23, 2-Chloro-N-(1-hydroxy-cyclohexylmethyl)-5-[(2-oxo-1,2-dihydro-pyrimidin-4-yl)-propyl-amino]-benzamide], `COCCN(c1ccc(Cl)c(C(=O)NCC2(O)CCCCC2)c1)c1cc[nH]c(=O)n1` [Example 33, 2-Chloro-N-(1-hydroxy-cyclohexylmethyl)-5-[(2-methoxy-ethyl)-(2-oxo-1,2-dihydro-pyrimidin-4-yl)-amino]-benzamide] is 10-fold higher in IC50: 18 nM for the first, 183 nM for the second. The first is the more potent here.

`CC(C)N(c1ccc(Cl)c(C(=O)NCC2(O)CCCCC2)c1)c1ccnc(Cl)n1` [Example 24, 2-Chloro-5-[(2-chloro-pyrimidin-4-yl)-isopropyl-amino]-N-(1-hydroxy-cyclohexylmethyl)-benzamide] and `CC(C)CN(c1ccc(Cl)c(C(=O)NCC2(O)CCCCC2)c1)c1ccnc(Cl)n1` [Example 26, 2-Chloro-5-[(2-chloro-pyrimidin-4-yl)-isobutyl-amino]-N-(1-hydroxy-cyclohexylmethyl)-benzamide] are within 1.5-fold of each other in IC50: 236 nM for the first, 317 nM for the second.

Going from `CC(C)N(c1ccc(Cl)c(C(=O)NCC2(O)CCCCC2)c1)c1cc[nH]c(=O)n1` [Example 25, 2-Chloro-N-(1-hydroxy-cyclohexylmethyl)-5-[isopropyl-(2-oxo-1,2-dihydro-pyrimidin-4-yl)-amino]-benzamide] to `CC(C)CN(c1ccc(Cl)c(C(=O)NCC2(O)CCCCC2)c1)c1cc[nH]c(=O)n1` [Example 27, 2-Chloro-N-(1-hydroxy-cyclohexylmethyl)-5-[isobutyl-(2-oxo-1,2-dihydro-pyrimidin-4-yl)-amino]-benzamide], the IC50 falls from 109 nM to 30 nM (3.6-fold).

First: COc1nccc(N(CC(C)C)c2ccc(Cl)c(C(=O)NCC3(O)CCCCC3)c2)n1 [Example 28, 2-Chloro-N-(1-hydroxy-cyclohexylmethyl)-5-[isobutyl-(2-methoxy-pyrimidin-4-yl)-amino]-benzamide]
Second: COCCN(c1ccc(Cl)c(C(=O)NCC2(O)CCCCC2)c1)c1ccnc(OC)n1 [Example 34, 2-Chloro-N-(1-hydroxy-cyclohexylmethyl)-5-[(2-methoxy-ethyl)-(2-methoxy-pyrimidin-4-yl)-amino]-benzamide]
The IC50 of the first is 2.4-fold lower: 353 nM for the first, 860 nM for the second. The first is the more potent here.

`O=C(NCC1(O)CCCCC1)c1cc(N(Cc2ccccc2)c2ccnc(Cl)n2)ccc1Cl` [Example 29, 5-[Benzyl-(2-chloro-pyrimidin-4-yl)-amino]-2-chloro-N-(1-hydroxy-cyclohexylmethyl)-benzamide] and `COc1nccc(N(Cc2ccccc2)c2ccc(Cl)c(C(=O)NCC3(O)CCCCC3)c2)n1` [Example 31, 5-[Benzyl-(2-methoxy-pyrimidin-4-yl)-amino]-2-chloro-N-(1-hydroxy-cyclohexylmethyl)-benzamide] are within 1.5-fold of each other in IC50: 456 nM for the first, 566 nM for the second.

First: O=C(NCC1(O)CCCCC1)c1cc(N(Cc2ccccc2)c2cc[nH]c(=O)n2)ccc1Cl [Example 30, 5-[Benzyl-(2-oxo-1,2-dihydro-pyrimidin-4-yl)-amino]-2-chloro-N-(1-hydroxy-cyclohexylmethyl)-benzamide]
Second: O=C(NCC1(O)CCCCC1)c1cc(N(CCOc2ccccc2)c2cc[nH]c(=O)n2)ccc1Cl [Example 39, 2-Chloro-N-(1-hydroxy-cyclohexylmethyl)-5-[(2-oxo-1,2-dihydro-pyrimidin-4-yl)-(2-phenoxy-ethyl)-amino]-benzamide]
The IC50 of the first is 2.1-fold lower: 181 nM for the first, 378 nM for the second. The first is the more potent here.

Compared with `O=C(NCC1(O)CCCCC1)c1cc(N(CC2CCCC2)c2ccnc(Cl)n2)ccc1Cl` [Example 35, 2-Chloro-5-[(2-chloro-pyrimidin-4-yl)-cyclopentylmethyl-amino]-N-(1-hydroxy-cyclohexylmethyl)-benzamide], `O=C(NCC1(O)CCCCC1)c1cc(N(CC2CCCC2)c2cc[nH]c(=O)n2)ccc1Cl` [Example 36, 2-Chloro-5-[cyclopentylmethyl-(2-oxo-1,2-dihydro-pyrimidin-4-yl)-amino]-N-(1-hydroxy-cyclohexylmethyl)-benzamide] is 2-fold lower in IC50: 367 nM for the first, 185 nM for the second. The second is the more potent here.

`O=C(NCC1(O)CCCCC1)c1cc(N(CCOc2ccccc2)c2ccnc(Cl)n2)ccc1Cl` [Example 38, 2-Chloro-5-[(2-chloro-pyrimidin-4-yl)-(2-phenoxy-ethyl)-amino]-N-(1-hydroxy-cyclohexylmethyl)-benzamide] and `COc1nccc(N(CCOc2ccccc2)c2ccc(Cl)c(C(=O)NCC3(O)CCCCC3)c2)n1` [Example 40, 2-Chloro-N-(1-hydroxy-cyclohexylmethyl)-5-[(2-methoxy-pyrimidin-4-yl)-(2-phenoxy-ethyl)-amino]-benzamide] are within 1.5-fold of each other in IC50: 764 nM for the first, 588 nM for the second.

Compared with `C[C@@H](NC(=O)c1cc(N(C)c2ccnc(Cl)n2)ccc1Cl)C1CCCCC1` [Example 41, 2-Chloro-5-[(2-chloro-pyrimidin-4-yl)-methyl-amino]-N—((R)-1-cyclohexyl-ethyl)-benzamide], `CN(c1ccc(Cl)c(C(=O)N[C@H](CO)C2CCCCC2)c1)c1ccnc(Cl)n1` [Example 43, 2-Chloro-5-[(2-chloro-pyrimidin-4-yl)-methyl-amino]-N—((S)-1-cyclohexyl-2-hydroxy-ethyl)-benzamide] is 2.8-fold lower in IC50: 384 nM for the first, 136 nM for the second.

`C[C@@H](NC(=O)c1cc(N(C)c2cc[nH]c(=O)n2)ccc1Cl)C1CCCCC1` [Example 42, 2-Chloro-N—((R)-1-cyclohexyl-ethyl)-5-[methyl-(2-oxo-1,2-dihydro-pyrimidin-4-yl)-amino]-benzamide] and `CN(c1ccc(Cl)c(C(=O)N[C@H](CO)C2CCCCC2)c1)c1cc[nH]c(=O)n1` [Example 44, 2-Chloro-N—((S)-1-cyclohexyl-2-hydroxy-ethyl)-5-[methyl-(2-oxo-1,2-dihydro-pyrimidin-4-yl)-amino]-benzamide] are within 1.5-fold of each other in IC50: 38 nM for the first, 33 nM for the second.

`CN(c1ccc(Cl)c(C(=O)NCC2(O)CCCCCC2)c1)c1ccnc(Cl)n1` [Example 45, 2-Chloro-5-[(2-chloro-pyrimidin-4-yl)-methyl-amino]-N-(1-hydroxy-cycloheptylmethyl)-benzamide] and `CN(c1ccc(Cl)c(C(=O)NCC2(O)CCCCCCC2)c1)c1ccnc(Cl)n1` [Example 47, 2-Chloro-5-[(2-chloro-pyrimidin-4-yl)-methyl-amino]-N-(1-hydroxy-cyclooctylmethyl)-benzamide] are within 1.5-fold of each other in IC50: 89 nM for the first, 116 nM for the second.

`CN(c1ccc(Cl)c(C(=O)NCC2(O)CCCCCC2)c1)c1cc[nH]c(=O)n1` [Example 46, 2-Chloro-N-(1-hydroxy-cycloheptylmethyl)-5-[methyl-(2-oxo-1,2-dihydro-pyrimidin-4-yl)-amino]-benzamide] and `CN(c1ccc(Cl)c(C(=O)NCC2(O)CCCCCCC2)c1)c1ccnc(=O)[nH]1` [Example 48, 2-Chloro-N-(1-hydroxy-cyclooctylmethyl)-5-[methyl-(2-oxo-2,3-dihydro-pyrimidin-4-yl)-amino]-benzamide] are within 1.5-fold of each other in IC50: 21 nM for the first, 15 nM for the second.

In the case of `CN(c1ccc(Cl)c(C(=O)NCC2(O)CCCC2)c1)c1ccnc(Cl)n1` [Example 49, 2-Chloro-5-[(2-chloro-pyrimidin-4-yl)-methyl-amino]-N-(1-hydroxy-cyclopentylmethyl)-benzamide], the IC50 is reported as 1120 nM.
